According to PMC5393024, “Discovery and characterization of natural tropolones as inhibitors of the antibacterial target CapF from Staphylococcus aureus” (Scientific Reports, 2015):

Legend:
CapF = assay: NADPH consumption assay (absorbance at 340 nm); format: biochemical, Staphylococcus aureus; conditions: 0.02 μM CapF, 1.0 μM CapE, 125 μM UDP-D-GlcNAc, 250 μM NADPH, 37 °C
Method: A second assay monitoring the consumption of NADPH corroborates the inhibitory effect of 3-isopropenyl-tropolone (Fig. 2c). This assay is sensitive to the NADPH consumed by the SDR domain during the second reaction catalyzed by CapF (reduction step). […] Nevertheless, additional experiments were required to corroborate that idea (see below).
The enzymatic performance of CapF was evaluated by examining the consumption of NADPH spectrophotometrically, or by monitoring the disappearance of substrate and the formation of product by HPLC[9][12]. First, the time-dependent consumption of NADPH (monitored from a decrease of adsorption at 340 nm) was carried out in 384-well plates at a final volume of 50 μL. The solution contained 1.0 μM CapE, 0.02 μM CapF, 125 μM UDP-D-GlcNAc (substrate), 250 μM NADPH and fragment compounds at various concentrations in HBS supplemented with 0.005% (v/v) Tween-20 and 5% (v/v) DMSO. Each reaction mixture was incubated at 37 °C and the absorption at 340 nm was measured with a plate reader (PHERAstar, BMG Labtech, Durham, NC).
Figure S7. (a) Structure of compounds employed. (b-d) Time course of NADPH consumption by CapF in the presence of (b) tropolone, (c) 4-isopropyl-tropolone, and (d) 2-Cl-tropone. Increasing the concentration of compounds decreases the rate of consumption of NADPH. (e-g) Inhibition after two hours for (e) tropolone, (f) 4-isopropyl-tropolone, and (g) 2-Cl-tropone. Concentration of CapE and CapF was 1.0 µM and 0.02 µM, respectively. Concentration of NADPH and UDP-D-GlcNAc was 250 µM and 125 µM, respectively. The change of absorbance was calculated with respect to a control assay in the absence of CapF.
(§1) (1 picture or pasted object on this page, not shown here)

WT CapF = assay: DSC thermal stability of WT CapF; format: binding, Staphylococcus aureus; conditions: 24 μM protein, 240 μM inhibitor
Method: Thermal stability of CapF was examined by DSC in a ultrasensitive VP-capillary micro-calorimeter (Microcal). Prior to the experiment the protein was equilibrated in a buffer composed of 50 mM HEPES (pH 7.5), 50 mM NaCl and 5% DMSO. The concentration of protein and inhibitor were adjusted to 24 μM and 240 μM, respectively. The samples were heated between 10 and 110 °C at a scan rate of 1 °C/min. Data analysis was carried out with ORIGIN7 using a two-state transition model.

CapE = assay: HPLC assay employing only CapE; format: biochemical, Staphylococcus aureus; conditions: CapF not present
Method: For that purpose, an HPLC-based assay monitoring the consumption of substrate and the appearance of product was employed (Fig. 2b)[12]. Whereas in the absence of 3-isopropenyl-tropolone the substrate was converted into product with nearly quantitative yield (91%), in the presence of 1 mM 3-isopropenyl-tropolone the peaks corresponding to substrate and product were largely absent (their combined areas were <18%). Instead, a large peak corresponding to the byproduct generated by the enzyme CapE under thermodynamic control was observed (80% yield as judged from the area under the curve). To confirm that inhibition of 3-isopropenyl-tropolone is specific for CapF we performed an additional experiment employing only CapE, which is the enzyme generating the substrate for CapF in the functional assay (Supplementary Information Figure S2).
Figure S2. Elution profile of compounds after incubation of the substrate UDP-D-GlcNAc with
CapE in the absence (red line) and presence (black line) of 3-isopropenyl-tropolone. In this
experiment CapF was not present. Experimental conditions are described in the Methods section.
The blue, red and green triangles indicate the elution peaks of product, substrate, and by-product,
as §1

[1] = system: CapF reconstituted with Zn^2+; assay: FluoZin-3 binding competition assay; design: species or system Staphylococcus aureus
Method: Figure 3 Binding of 3-isopropenyl-tropolone to CapF requires Zn^2+. CapF (150 μM) reconstituted with Zn^2+ was titrated with 1.65 mM inhibitor in the absence (a) or the presence (b) of 1 mM EDTA. The upper panels correspond to the titration data, and the lower panels to the integrated binding isotherms. (c) Binding competition assay. CapF (1.0 μM) reconstituted with Zn^2+ in the presence of the Zn^2+-sensitive dye FluoZin-3 (1.0 μM) was titrated with 3-isopropenyl-tropolone (λEX = 490 nm; λEM = 520 nm).
Second, the fluorescence of the Zn^2+-specific indicator FluoZin-3[19][20] was examined in the presence of CapF. The signal of FluoZin-3 increases dramatically in the presence of Zn^2+ ions when the metal is accessible to the dye. […] In contrast, the fluorescence of FluoZin-3 with apo-CapF, or with holo-CapF in the presence of 3-isopropenyl-tropolone, was negligible.
Fluorescence measurements were carried out using the Zn^2+-sensitive dye FluoZin-3 (Life Technologies) in a buffer composed of 10 mM HEPES, 150 mM NaCl (pH 7.4) supplemented with 5% (v/v) DMSO at 25 °C. The fluorescence intensities were measured in a plate reader (PHERAstar, BMG Labtech, Durham, NC) with excitation and emission wavelengths set to 490 nm and 520 nm, respectively.
Figure S3. Zn2+ governs the binding of inhibitor to CapF. […]
from ZnCl2) with 1.65 mM 3-isopropenyl-tropolone. (b) Fluorescence of the Zn2+-sensitive dye […]

C=C(C)c1ccccc(=O)c1O [3-isopropenyl-tropolone]
inhibition of NADPH consumption (CapF): rate of consumption of NADPH slowed down as the concentration of inhibitor increases
inhibition of NADPH consumption (CapF; listed as 3-isopropylen-tropolone): inhibited the consumption of NADPH in a concentration-dependent basis
ΔTM (decrease in thermal stability) (WT CapF): 5.2 ± 0.4 °C
TM (WT CapF; WT CapF alone 59.9 ± 0.2): 54.7 ± 0.2 °C
HPLC profile of the reaction products of CapE in presence of inhibitor (CapE): not altered
inflexion point of FluoZin-3 fluorescence signal vs concentration of compound ([1]; CapF 1.0 μM, FluoZin-3 1.0 μM, 25 °C): 51 µM
fluorescence of FluoZin-3 with holo-CapF in the presence of compound ([1]; CapF 1 µM, compound 1.0 mM): negligible
